We go through four compounds from US10829489B2, “Bicyclic heterocyclic derivatives” (Merck Patent GmbH, priority 2015, dated 2020).

The target of one test is PDHK2 (Homo sapiens (Human), UniProt Q15119). Kind of test: Biochemical activity testing of PDHK2: PDC inactivation assay. The note with it: human rec PDHK2, PDC inactivation assay; read-out: IC50 PDHK2 (enzyme assay). From the text:
Biochemical Activity Testing of PDHK2: PDC Inactivation Assay
The biochemical activity assay for PDHK2 is based on the inactivation of PDC through phosphorylation by PDHK2. The assay is run in two steps: the enzymatic PDHK2 reaction in which isolated PDC is phosphorylated by PDHK2 with ATP as co-substrate and the PDC activity assay in which pyruvate and NAD are converted to acetyl-CoA and NADH. The PDC activity correlates to the increase in NADH and thereby is detectable directly via the increasing fluorescence signal (Exc 340 nm, Em 450 nm). Inhibition of PDHK2 results in a lower phosphorylation status and thereby a less decrease in activity of PDC and a stronger increase in NADH fluorescence signal.
The PDC inactivation assay is performed in Greiner 384-well microtiter plates and is used for high throughput screen. […] The first fluorescence measurement is performed on a Perkin Elmer Envision (Exc 340 nm, Em 450 nm). […] Afterwards a second fluorescence measurement is performed and the PDC activity is calculated by the difference between both measurements. […] The inhibitory values (IC50) were determined using either the program Symyx Assay Explorer® or Condosseo® from GeneData.

A further test deals with human PDHK2 (12-407) (Homo sapiens (Human), UniProt Q15119). Kind of test: Isothermal titration calorimetry (ITC) binding. The note with it: 30° C. As for the experimental part: Isothermal Titration Calorimetry
ITC measurements were performed with a VP-ITC micro calorimeter (Microcal, LLC/GE Healthcare Bio-Sciences AB, Uppsala, Sweden). In general titrations were performed by titrating the protein (50 μM) to the test compound (5 μM) in 12 μl injections. All binding experiments were carried out at 30° C. In general the test compounds were diluted form DMSO stock solutions into the measurement buffer with a maximum final concentration of 1% DMSO. The measurement buffer was 20 mM HEPES, 135 mM KCl, 1 mM TCEP, 2 mM MgCl2, 15 mM NaH2PO4, pH 7.5. The human PDHK2 (12-407) was produced in E. coli as his-tagged protein and purified by affinity chromatography. The tag was removed by side specific proteolysis. Before titration the protein buffer was changed to the measurement buffer containing the same DMSO concentration as the test compound dilution. ITC data analysis was performed using Origin 7 calorimetry software from the same supplier. For most measurements a binding model of one binding site was assumed. According to the applied mathematical model it is possible to calculate the binding constant (KA), the observed binding enthalpy (ΔH^obs) as well as the stoichiometry (N) of the formed complex. Preceding analysis the raw data was corrected for the heats of dilution by extrapolating from the saturation value from the end of titration. In order to allow for direct comparison between the respective experimental series and protein preparations the protein concentration was corrected by referencing titrations to a well behaved standard inhibitor. The apparent stoichiometry values defined the fraction of binding competent protein and compensated for relative errors in protein concentration measurements. This corrected protein concentration was used to set up ITC experiment series with test compounds. Any deviations from ideal 1:1 stoichiometry observed here were attributed to errors in compound concentration. This nominal compound concentration was corrected as well to achieve 1:1 stoichiometry in the fit.
On the technique in general: In ITC the heat of successive injections is recorded.

In test [1] the test system is PDH-E1alpha (pSer300) in HEK293T cells. Nature of the test: Cellular immunofluorescence assay for compound activity (Anti-PDH-E1alpha pSer300). Type of test: cell-based. As to conditions: Homo sapiens, HEK-293T, 5 hours incubation, read-out: IC50 (cell data). As for the experimental part: Cellular Assay for Determination of Compound Activities
Compound activities were determined in a cellular immunofluorescence assay. Human HEK293T cells were seeded into black 384-well plates with clear bottom and grown overnight.
Next day, test compounds were added to the wells and the plates incubated for 5 hours. Following this, cells were fixed with formaldehyde, permeabilised and blocked. The primary antibody, Anti-PDH-E1alpha (pSer300), AP1064 (Merck Millipore) was added and incubated overnight in the plate wells. Next, cells were washed and the secondary antibody, Alexa Fluor 488, goat anti-rabbit ab (A-11008, Invitrogen) was added together with Hoechst 33258 (H3569, Invitrogen) and incubated for 1 hour in the plate wells. Finally, cells were washed and the plates were measured on the laser scanning cytometer acumen hci (TTpLabtech).
The raw data were normalized against a pharmacological inhibitor control and dose response curves were generated by plotting the percent effect values using the software package Genedata screener (Genedata).

What is called IC50 is the point on the concentration scale where inhibition reaches its midpoint. As usually defined, the Kd is the free concentration of one partner at which half of the binding sites on the other are occupied at equilibrium, for simple one-to-one binding. A higher Kd goes with weaker binding.

With `COc1ccc(-n2ncc3c2[C@H](C)CN(C(=O)[C@@](C)(O)C(F)(F)F)C3)cn1` [Compound A30, (R)-3,3,3-Trifluoro-2-hydroxy-1-[(R)-1-(6-methoxy-pyridin-3-yl)-7-methyl-1,4,6,7-tetrahydro-pyrazolo[4,3-c]pyridin-5-yl]-2-methyl-propan-1-one], the IC50 (on PDHK2; in test [1]) was less than 300 nM throughout. On human PDHK2 (12-407), the Kd is less than 300 nM.
As to `COc1ccc(-n2ncc3c2[C@@H](C)CN(C(=O)[C@@](C)(O)C(F)(F)F)C3)cn1` [Compound A31, (R)-3,3,3-Trifluoro-2-hydroxy-1-[(S)-1-(6-methoxy-pyridin-3-yl)-7-methyl-1,4,6,7-tetrahydro-pyrazolo[4,3-c]pyridin-5-yl]-2-methyl-propan-1-one], the IC50 on PDHK2 was 3000 to 50000 nM.
Compound `C[C@@](O)(C(=O)N1CCc2c(ncn2-c2ccc(F)cc2)C1)C(F)(F)F` [Compound A44, (R)-3,3,3-Trifluoro-1-[1-(4-fluoro-phenyl)-1,4,6,7-tetrahydro-imidazo[4,5-c]pyridin-5-yl]-2-hydroxy-2-methyl-propan-1-one] yielded a Kd on human PDHK2 (12-407) of less than 300 nM.
As for `C[C@@](O)(C(=O)N1CCc2c(ncn2-c2ccc(Cl)cc2)C1)C(F)(F)F` [Compound A45, (R)-1-[1-(4-Chloro-phenyl)-1,4,6,7-tetrahydro-imidazo[4,5-c]pyridin-5-yl]-3,3,3-trifluoro-2-hydroxy-2-methyl-propan-1-one], the Kd on human PDHK2 (12-407) was less than 300 nM.
